Like-named read-outs stand apart in the source and are kept apart here. One block for each molecule: values may come before it.
Experiments:
[1] = biological target: alkaline phosphatase (Rabbit Intestine) (Oryctolagus cuniculus, UniProt G1SXE4); assay: Alkaline phosphatase inhibition, Rabbit Intestine isoform; type: biochemical; details: 100 μM human serum albumin vs none
Method: (§1) Reactions were conducted in 200 mM diethanolamine buffer, pH 10, with methylumbeliferal phosphate as the substrate. The reaction was monitored by recording fluorescence of the hydrolysis product (excitation at 355 nm, fluorescence at […]), and the first 10% of the reaction was used to determine the rate of the reaction.
(§2) In the presence of 100 μM human serum albumin, compound 1 was seen to be a better inhibitor for four of the enzymes tested relative to the inhibition seen in the absence of albumin.

[2] = biological target: alkaline phosphatase (Bacteria) (Escherichia coli, UniProt P00634); assay: Alkaline phosphatase inhibition, Bacteria isoform; type: biochemical
Method: as §1, §2

[3] = biological target: alkaline phosphatase (Dog Intestine) (Canis lupus familiaris, UniProt A0A8C0LCK3); assay: Alkaline phosphatase inhibition, Dog Intestine isoform; type: biochemical
Method: as §1, §2

[4] = biological target: T1, alkaline phosphatase (Porcine Kidney) (Sus scrofa, UniProt A0A4X1W3F8); assay: Alkaline phosphatase inhibition, Porcine Kidney isoform; type: biochemical
T1 sequence (A0A4X1W3F8 1-524): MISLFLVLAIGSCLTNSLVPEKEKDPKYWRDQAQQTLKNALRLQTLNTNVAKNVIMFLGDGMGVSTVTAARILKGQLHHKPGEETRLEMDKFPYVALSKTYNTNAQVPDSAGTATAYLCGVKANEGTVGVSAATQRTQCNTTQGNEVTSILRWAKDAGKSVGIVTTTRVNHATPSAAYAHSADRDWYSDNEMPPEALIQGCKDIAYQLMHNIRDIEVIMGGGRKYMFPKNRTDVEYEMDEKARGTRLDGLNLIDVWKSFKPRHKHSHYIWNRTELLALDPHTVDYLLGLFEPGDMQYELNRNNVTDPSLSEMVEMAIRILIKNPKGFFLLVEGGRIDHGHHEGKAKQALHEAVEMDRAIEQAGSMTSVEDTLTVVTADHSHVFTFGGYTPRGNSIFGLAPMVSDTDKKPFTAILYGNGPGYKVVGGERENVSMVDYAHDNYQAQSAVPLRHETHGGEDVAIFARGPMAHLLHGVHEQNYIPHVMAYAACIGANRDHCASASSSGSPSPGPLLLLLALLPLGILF
Method: as §1, §2

[5] = biological target: alkaline phosphatase (Eel Intestine) (Anguilla anguilla, UniProt A0A9D3RXU0); assay: Alkaline phosphatase inhibition, Eel Intestine isoform; type: biochemical; details: 100 μM human serum albumin vs none
Method: as §1, §2

[6] = biological target: T2, alkaline phosphatase (Bovine Milk) (Bos taurus, UniProt P09487); assay: Alkaline phosphatase inhibition, Bovine Milk isoform; type: biochemical
T2 construct: Bovine Milk; from tissue; host or cells: bovine milk
T2 sequence (P09487 18-499): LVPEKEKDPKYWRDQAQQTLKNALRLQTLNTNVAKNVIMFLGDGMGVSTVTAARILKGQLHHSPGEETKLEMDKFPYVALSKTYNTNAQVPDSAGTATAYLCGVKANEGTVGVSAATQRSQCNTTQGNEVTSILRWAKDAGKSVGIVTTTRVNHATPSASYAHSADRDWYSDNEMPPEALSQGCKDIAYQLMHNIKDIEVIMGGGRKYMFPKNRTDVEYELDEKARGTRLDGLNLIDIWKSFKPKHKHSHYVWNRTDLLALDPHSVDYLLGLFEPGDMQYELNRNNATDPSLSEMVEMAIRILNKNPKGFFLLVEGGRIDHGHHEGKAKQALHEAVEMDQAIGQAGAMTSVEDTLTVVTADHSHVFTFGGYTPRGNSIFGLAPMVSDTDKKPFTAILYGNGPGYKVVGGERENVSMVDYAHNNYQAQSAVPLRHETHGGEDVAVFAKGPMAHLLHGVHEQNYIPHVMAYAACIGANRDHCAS
Method: as §1, §2

[7] = biological target: T3, alkaline phosphatase (Human Placenta) (Homo sapiens, UniProt P05187); assay: Alkaline phosphatase inhibition, Human Placenta isoform; type: biochemical; details: for IC50: Human Placenta, pH 10
T3 construct: roughly 2-fold for the eel intestine and human placenta isoforms of the enzyme; from tissue; host or cells: human placenta
Method: as §1, §2

[8] = biological target: alkaline phosphatase (Shrimp) (Pandalus borealis, UniProt Q9BHT8); assay: Alkaline phosphatase inhibition, Shrimp isoform; type: biochemical; details: Shrimp, pH 10
Method: as §1, §2

[9] = test system: alkaline phosphatase (Shrimp); assay: Alkaline phosphatase inhibition, Shrimp isoform; type: biochemical; details: shrimp isoform; 100 μM human serum albumin vs none
Method: as §1, §2

Fyn SH2 domain = biological target: T4, Fyn SH2 domain (Homo sapiens, UniProt P06241); assay: Competition binding assay of radioactive Fyn SH2 domain to pYEEI beads
T4 construct: The Fyn, Lck and PLC SH2 domains were expressed in bacteria as GST fusion proteins; GST (cleaved yes); made in house; host or cells: bacteria
Description: (§3) The pYEEI peptide was coupled to Affi-Gel 10 beads (Biorad) via its amino-group. The Fyn, Lck and PLC SH2 domains were expressed in bacteria as GST fusion proteins. The linker between the GST protein and the SH2 domain contained a thrombin cleavage site and a protein kinase A (PKA) phosphorylation site. The fusion protein on glutathione beads was radioactively labeled at the PKA phosphorylation site using PKA (Sigma). After extensive washing of the beads, the radioactive SH2 domain was released by cleavage with thrombin (Sigma). In a typical binding assay, 7.5 L of a 1:1 peptide bead slurry were incubated with the radioactive SH2 domain (200 nM) for 2 hours in 100 L of binding buffer (20 mM Tris pH7.2; 150 mM NaCl). In order to separate the radioactive protein bound to the beads, the binding reaction was transfered into a PCR tube (USA Scientific Plastic), whose bottom had been punctured with a 26gauge needle. The PCR tube was placed in a 0.5 mL Eppendorf tube which in turn was placed in a regular 1.5 mL Eppendorf tube. The tubes were spun for 1 second at maximal speed in an Eppendorf centrifuge resulting in the separation of the beads remaining in the PCR tube and the supernatant, which was collected in the 0.5 ml Eppendorf tube. The beads were resuspended in […] PBS and the radioactivity was counted in a liquid scintillation counter after addition of 3 ml scintillation fluid. The radioactivity remaining in the 100 L supernatant was counted in the same way. It was determined that under the conditions described 65% Fyn, 25% PLC and 15%Lck SH2 domain were bound to the beads. By increasing the amount of beads, up to 80% Fyn, 40% PLC and 25% Lck could be bound. These amounts reflect the active fraction of SH2 domains in the different protein preparations.
In order to determine the relative affinity of the SH2 domains for FKpYEEI or SLFpYEEI alone and FKpYEEI or SLFpYEEI bound to FKBP12 and FKBP52, the following competition assay was used. Radioactive SH2 domains were incubated with pYEEI peptide beads and FKpYEEI or SLFpYEEI in the presence or absence of the respective FKBP proteins. FKpYEEI and FKpYEEI/FKBP as well as SLFpYEEI and SLFpYEEI/FKBP compete for binding of the SH2 domains with the peptide beads. The higher the affinity of the FKpYEEI or SLFpYEEI ligand in the supernatant, the less SH2 domain is bound to the peptide beads (FIG. 3).
Using the competition binding assay described above, FKpYEEI was added to peptide beads and the Fyn SH2 domain in the presence of increasing concentrations of FKBP52 (FIG. 4). In this assay, in 100 L binding reactions, radioactively labeled Fyn SH2 domain (200 nM) was incubated with 7.5 L of a 1:1 pYEEI bead slurry. No FKpYEEI, 1.0 M FKpYEEI or 1.0 M FKpYEEI plus increasing concentrations of FKBP52 (0.25-4.0 M) were added. The binding reactions were rotated at room temperature for 2 hours. The supernatant was separated from the beads by spinning the binding reactions in punctured PCR tubes for 1 sec in an Eppendorf centrifuge at maximal speed. The beads were resuspended in 100 1 PBS and the radioactivity bound to the beads was counted in a liquid scintillation vial for 30 sec. The radioactivity bound to the beads in the presence of only the Fyn SH2 domain was plotted as 100% of maximal Fyn SH2 domain binding to pYEEI beads. The radioactivity bound in the presence of FKpYEEI and FKBP52 was calculated as the percentage of maximal Fyn SH2 domain binding. Every binding reaction was done in triplicate. The data points reflect the average of the three binding reactions. The error bars indicate the standard error.
In this assay, in 100 L binding reactions, radioactively labeled Fyn SH2 domain (200 nM) was incubated with 7.5 L of a 1:1 pYEEI bead slurry. […] The binding reactions were rotated at room temperature for 2 hours, centrifuged and analysed as described above. […]

PLC SH2 domain = assay: Competition binding assay of radioactive PLC SH2 domain to pYEEI beads; details: FKpYEEI 1.5 M plus FKBP12 2.0 M plus FK506 1.0-5.0 M
Description: as §3, with “By increasing the amount of beads, up to 80% Fyn, 40% PLC and 25% Lck could be bound. These amounts reflect the active fraction of SH2 domains in the different protein preparations.” left out
The binary complex of FKpYEEI and FKBP 12 has the same affinity for the Fyn SH2 domain as free FKpYEEI (see FIG. 7). […] The binding reactions were rotated at room temperature for 2 hours, centrifuged and analysed as described above.
In this assay, in 100 L binding reactions, radioactively labeled PLC SH2 domain (400 nM) was incubated with 7.5 L of a 1:1 pYEEI bead slurry. […] The binding reactions were rotated at room temperature for 2 hours, centrifuged and analysed as described above. […]

alkaline phosphatase = details: known inhibitor; cited from earlier work
albumin = albumin (Homo sapiens, UniProt P02768); details: known ligand; read-out: IC50 as ligand for albumin; cited from earlier work
[10] = 100 μM human serum albumin, pH 10, read-out: IC50 (100 μM albumin)
[11] = no albumin, pH 10, read-out: IC50 (no albumin)

T3 sequence (P05187 23-506): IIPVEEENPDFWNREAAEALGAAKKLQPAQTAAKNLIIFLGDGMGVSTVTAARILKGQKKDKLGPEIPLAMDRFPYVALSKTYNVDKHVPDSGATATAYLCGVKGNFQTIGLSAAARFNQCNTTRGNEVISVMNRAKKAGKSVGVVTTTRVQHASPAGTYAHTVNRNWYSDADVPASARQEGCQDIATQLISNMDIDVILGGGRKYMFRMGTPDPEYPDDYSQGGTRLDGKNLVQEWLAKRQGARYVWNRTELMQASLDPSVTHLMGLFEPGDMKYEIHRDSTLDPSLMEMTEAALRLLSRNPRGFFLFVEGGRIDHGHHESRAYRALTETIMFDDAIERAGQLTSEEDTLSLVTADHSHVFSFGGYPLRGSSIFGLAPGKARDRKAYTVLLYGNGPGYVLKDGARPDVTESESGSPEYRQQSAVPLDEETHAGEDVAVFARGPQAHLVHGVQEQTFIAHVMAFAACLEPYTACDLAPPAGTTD
Sequence of alkaline phosphatase (Shrimp) (Pandalus borealis, UniProt Q9BHT8) (Q9BHT8 entry or part of it): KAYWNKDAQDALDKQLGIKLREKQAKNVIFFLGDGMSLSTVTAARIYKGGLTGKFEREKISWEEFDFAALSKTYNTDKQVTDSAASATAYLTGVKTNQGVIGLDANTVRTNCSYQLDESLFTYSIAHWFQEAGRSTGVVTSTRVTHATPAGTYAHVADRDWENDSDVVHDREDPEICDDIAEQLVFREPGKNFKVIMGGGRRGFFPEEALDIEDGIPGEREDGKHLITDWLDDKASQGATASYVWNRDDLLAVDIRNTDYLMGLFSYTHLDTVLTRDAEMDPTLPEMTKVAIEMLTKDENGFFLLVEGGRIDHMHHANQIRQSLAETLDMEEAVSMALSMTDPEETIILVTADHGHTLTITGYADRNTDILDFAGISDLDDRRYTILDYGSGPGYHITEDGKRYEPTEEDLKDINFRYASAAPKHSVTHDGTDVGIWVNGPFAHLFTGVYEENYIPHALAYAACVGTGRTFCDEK
T4 sequence (P06241 149-246 limits assumed): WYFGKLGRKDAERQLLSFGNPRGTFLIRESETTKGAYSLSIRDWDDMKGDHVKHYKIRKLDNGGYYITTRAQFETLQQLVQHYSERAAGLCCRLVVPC
Sequence of alkaline phosphatase (Bacteria) (P00634 22-471): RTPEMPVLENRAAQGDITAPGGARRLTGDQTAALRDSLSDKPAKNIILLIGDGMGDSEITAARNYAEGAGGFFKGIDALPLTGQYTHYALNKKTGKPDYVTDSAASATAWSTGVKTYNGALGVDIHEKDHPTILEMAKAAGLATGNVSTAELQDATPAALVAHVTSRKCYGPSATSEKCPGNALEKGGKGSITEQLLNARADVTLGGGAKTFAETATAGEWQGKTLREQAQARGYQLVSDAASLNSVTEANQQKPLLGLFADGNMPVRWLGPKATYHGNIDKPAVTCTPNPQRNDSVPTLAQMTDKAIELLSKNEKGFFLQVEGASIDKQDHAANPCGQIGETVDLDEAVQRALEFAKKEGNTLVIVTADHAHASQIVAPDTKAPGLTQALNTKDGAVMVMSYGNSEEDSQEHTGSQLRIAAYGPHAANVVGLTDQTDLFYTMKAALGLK
Sequence of alkaline phosphatase (Dog Intestine) (A0A8C0LCK3 23-522): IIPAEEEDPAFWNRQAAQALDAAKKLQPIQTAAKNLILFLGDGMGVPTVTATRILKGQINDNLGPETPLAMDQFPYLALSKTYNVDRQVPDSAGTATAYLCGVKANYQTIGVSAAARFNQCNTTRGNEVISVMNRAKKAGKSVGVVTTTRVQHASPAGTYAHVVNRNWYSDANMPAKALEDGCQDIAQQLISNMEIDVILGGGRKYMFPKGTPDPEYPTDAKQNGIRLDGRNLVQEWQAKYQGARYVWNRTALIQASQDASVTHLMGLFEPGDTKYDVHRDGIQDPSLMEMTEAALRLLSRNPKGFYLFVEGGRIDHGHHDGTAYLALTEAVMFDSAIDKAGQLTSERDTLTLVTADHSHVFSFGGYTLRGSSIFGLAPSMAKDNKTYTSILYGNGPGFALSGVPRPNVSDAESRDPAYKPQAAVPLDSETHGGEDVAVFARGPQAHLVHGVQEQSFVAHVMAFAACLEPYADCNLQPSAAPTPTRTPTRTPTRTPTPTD
Sequence of albumin (P02768 25-609): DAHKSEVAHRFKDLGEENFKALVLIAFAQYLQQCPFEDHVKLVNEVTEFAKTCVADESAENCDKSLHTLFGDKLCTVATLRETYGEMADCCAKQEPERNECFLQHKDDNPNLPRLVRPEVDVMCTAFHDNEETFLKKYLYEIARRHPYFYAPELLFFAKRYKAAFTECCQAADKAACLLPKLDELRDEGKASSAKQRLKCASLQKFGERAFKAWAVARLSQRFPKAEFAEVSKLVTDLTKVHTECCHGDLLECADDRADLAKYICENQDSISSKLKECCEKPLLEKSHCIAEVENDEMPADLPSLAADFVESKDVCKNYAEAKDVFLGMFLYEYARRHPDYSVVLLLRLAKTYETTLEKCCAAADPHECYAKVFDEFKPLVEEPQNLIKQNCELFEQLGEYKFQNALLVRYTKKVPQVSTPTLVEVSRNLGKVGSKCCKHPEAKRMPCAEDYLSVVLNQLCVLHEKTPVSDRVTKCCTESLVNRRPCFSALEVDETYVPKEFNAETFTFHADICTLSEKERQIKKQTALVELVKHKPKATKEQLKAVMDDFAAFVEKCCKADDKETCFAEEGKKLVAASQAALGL
Sequence of alkaline phosphatase (Rabbit Intestine) (G1SXE4 25-504): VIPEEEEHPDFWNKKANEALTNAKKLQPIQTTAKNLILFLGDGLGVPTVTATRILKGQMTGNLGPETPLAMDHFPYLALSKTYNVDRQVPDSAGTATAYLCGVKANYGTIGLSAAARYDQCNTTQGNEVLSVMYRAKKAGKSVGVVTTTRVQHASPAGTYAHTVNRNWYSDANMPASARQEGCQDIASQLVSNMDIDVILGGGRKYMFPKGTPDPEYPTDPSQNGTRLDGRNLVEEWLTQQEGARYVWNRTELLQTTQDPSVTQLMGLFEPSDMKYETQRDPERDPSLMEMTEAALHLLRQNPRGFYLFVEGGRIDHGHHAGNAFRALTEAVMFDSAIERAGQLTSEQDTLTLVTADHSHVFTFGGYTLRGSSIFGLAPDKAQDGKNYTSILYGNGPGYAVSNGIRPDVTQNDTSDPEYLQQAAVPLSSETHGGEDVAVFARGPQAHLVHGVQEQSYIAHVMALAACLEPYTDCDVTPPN
Sequence of alkaline phosphatase (Eel Intestine) (A0A9D3RXU0 entry or part of it): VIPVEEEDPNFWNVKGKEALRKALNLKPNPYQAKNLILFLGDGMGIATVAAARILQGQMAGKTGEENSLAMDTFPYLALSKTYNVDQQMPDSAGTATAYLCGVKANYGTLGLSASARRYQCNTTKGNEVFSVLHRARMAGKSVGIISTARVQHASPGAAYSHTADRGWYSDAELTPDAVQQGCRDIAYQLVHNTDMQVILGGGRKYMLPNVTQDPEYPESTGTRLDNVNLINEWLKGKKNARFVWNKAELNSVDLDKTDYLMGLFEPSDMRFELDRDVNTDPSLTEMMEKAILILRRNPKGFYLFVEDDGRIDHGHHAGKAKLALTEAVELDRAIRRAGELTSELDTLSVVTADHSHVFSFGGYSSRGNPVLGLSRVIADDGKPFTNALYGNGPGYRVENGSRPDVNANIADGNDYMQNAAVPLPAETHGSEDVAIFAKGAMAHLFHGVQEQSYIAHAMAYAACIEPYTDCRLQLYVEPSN

Structure (SMILES): CC(C)(S)C(N)C(=O)NCC(=O)Nc1ccc(C(=O)O)c(O)c1 (stereo not drawn) [Compound 1]
Decrease of IC50 in the presence of albumin [1]: roughly 12 fold | IC50 [2]: 50 µM | IC50 ([2]; read-out: IC50 (100 μM albumin), Bacteria, 100 μM human serum albumin, pH 10): 50 µM | IC50 ([3]; read-out: IC50 (100 μM albumin), 100 μM human serum albumin, pH 10): 20 µM | IC50 ([3]; read-out: IC50 (no albumin), no albumin, pH 10): 20 µM | IC50 [4, 10]: 50 µM | IC50 [4, 11]: 50 µM | Decrease of IC50 in the presence of albumin [5]: roughly 2 fold | IC50 [6, 10]: 50 µM | IC50 [6, 11]: 50 µM | IC50 ([7]; 100 μM human serum albumin, read-out: IC50 (100 μM albumin)): 45 µM | IC50 ([7]; no albumin, read-out: IC50 (no albumin)): 300 µM | Decrease of IC50 in the presence of albumin ([7]; human placenta isoform, 100 μM human serum albumin vs none): roughly 2 fold | IC50 ([8]; IC50 (100 μM albumin), 100 μM human serum albumin): 80 µM | IC50 ([8]; IC50 (no albumin), no albumin): 3000 µM | Decrease of IC50 in the presence of albumin [9]: roughly 12 fold

Effect of added FK506 on the FKBP12 effect (Fyn SH2 domain; SLFpYEEI 1.0 M plus FKBP12 2.0 M plus FK506 1.0-3.0 M): reverses the effect of reduced affinity | Effect of added FK506 on the FKBP12 effect (PLC SH2 domain): the affinity reduction is reversed
Structure (SMILES): C=CC[C@@H]1/C=C(\C)C[C@H](C)C[C@H](OC)[C@H]2O[C@@](O)(C(=O)C(=O)N3CCCC[C@H]3C(=O)O[C@H](/C(C)=C/[C@@H]3CC[C@@H](O)[C@H](OC)C3)[C@H](C)[C@@H](O)CC1=O)[C@H](C)C[C@@H]2OC [FK506, reference compound]
Effect of added FK506 on the FKBP52 effect (Fyn SH2 domain; FKpYEEI 1.0 M plus FKBP52 2.0 M plus FK506 0.25-15.0 M): the affinity enhancing effect of FKBP52 is reversed

Structure (SMILES): CC(C)(S)[C@@H](N)C(=O)O [Penicillamine]
IC 50 values for a wide variety of alkaline phosphatase isoforms (alkaline phosphatase): in the μM range

Structure (SMILES): Nc1ccc(C(=O)O)c(O)c1 [para-amino salicylic acid]
IC50 (albumin): 5 µM

Source: patent publication US6921531B2, “Administering bifunctional molecules containing a drug moiety and presenter protein ligand for therapy” (The Board of Trustees of the Leland Stanford Junior …, priority 1998, dated 2005)
